{"source": "patent US11912686B2", "about": "(Gilead Sciences, Inc., priority 2020, dated 2024)"}
{"target": "human LPAR1 (Homo sapiens (Human), UniProt Q92633)", "sequence (Q92633 whole entry)": "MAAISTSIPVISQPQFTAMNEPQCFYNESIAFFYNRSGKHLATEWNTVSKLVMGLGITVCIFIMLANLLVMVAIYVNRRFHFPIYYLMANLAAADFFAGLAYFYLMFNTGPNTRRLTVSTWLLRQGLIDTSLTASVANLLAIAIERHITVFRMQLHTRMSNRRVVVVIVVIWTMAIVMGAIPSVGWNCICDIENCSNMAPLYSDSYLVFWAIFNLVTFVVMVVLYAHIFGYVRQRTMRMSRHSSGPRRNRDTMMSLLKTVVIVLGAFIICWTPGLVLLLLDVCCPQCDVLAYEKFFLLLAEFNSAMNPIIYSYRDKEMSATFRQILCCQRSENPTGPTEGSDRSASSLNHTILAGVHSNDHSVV", "test": "LPAR1 intracellular calcium mobilization assay (antagonist mode, FLIPR)", "type": "cell-based", "conditions": "CHO-K1 EDG2 cells expressing human LPAR1, LPA 18:2 at EC80 (100 nM), test compound 0.5 nM to 10 μM", "units": {"EC50": "nM"}}
{"smiles": "C[C@@H](OC(=O)Nc1c(-c2ccc(NC(=O)C3CS(=O)(=O)C3)cn2)nnn1C)c1cccnc1Cl", "note": "[Compound 43, (R)-1-(2-chloropyridin-3-yl)ethyl (4-(5-(1,1-dioxidothietane-3-carboxamido)pyridin-2-yl)-1-methyl-1H-1,2,3-triazol-5-yl)carbamate]", "EC50": 497}
{"smiles": "C[C@@H](OC(=O)Nc1c(-c2ccc(NC(=O)[C@H]3[C@@H]4CS(=O)(=O)C[C@@H]43)cn2)nnn1C)c1cc(F)cnc1F", "note": "(racemic) [Compound 229, (R)-1-(2,5-difluoropyridin-3-yl)ethyl (4-(5-((1RS,5SR,6SR)-3,3-dioxido-3-thiabicyclo[3.1.0]hexane-6-carboxamido)pyridin-2-yl)-1-methyl-1H-1,2,3-triazol-5-yl)carbamate]", "EC50": 864}
{"smiles": "C[C@@H](C#N)C(=O)Nc1ccc(-c2nnn(C)c2NC(=O)O[C@H](C)c2cccnc2Cl)nc1", "note": "[Compound 204, (R)-1-(2-chloropyridin-3-yl)ethyl (4-(5-((S)-2-cyanopropanamido)pyridin-2-yl)-1-methyl-1H-1,2,3-triazol-5-yl)carbamate]", "EC50": 132}
{"smiles": "C[C@@H](OC(=O)Nc1c(-c2ccc(NC(=O)N3CCCC3)cn2)nnn1C)c1cccnc1Cl", "note": "[Compound 194, (R)-1-(2-chloropyridin-3-yl)ethyl (1-methyl-4-(5-(pyrrolidine-1-carboxamido)pyridin-2-yl)-1H-1,2,3-triazol-5-yl)carbamate]", "EC50": 832}
{"smiles": "C[C@@H](OC(=O)Nc1c(-c2ccc(NC(=O)C3(C#N)CC(F)C3)cn2)nnn1C)c1cccnc1Cl", "note": "(stereo partly drawn) [Compound 132, (R)-1-(2-chloropyridin-3-yl)ethyl (4-(5-(1-cyano-3-fluorocyclobutane-1-carboxamido)pyridin-2-yl)-1-methyl-1H-1,2,3-triazol-5-yl)carbamate]", "EC50": 197}
{"smiles": "Cc1cnc(F)cc1C(C)OC(=O)Nc1c(-c2ccc(NC(=O)C3(C#N)CC3)cn2)nnn1C", "note": "(centres unmarked) [Compound 27, 1-(2-fluoro-5-methylpyridin-4-yl)ethyl (4-(5-(1-cyanocyclopropane-1-carboxamido)pyridin-2-yl)-1-methyl-1H-1,2,3-triazol-5-yl)carbamate]", "EC50": 1280}
{"smiles": "C[C@@H](OC(=O)Nc1c(-c2ccc(NC(=O)C3(C#N)CNC3)cn2)nnn1C)c1cc(F)cnc1F", "note": "[Compound 297, (R)-1-(2,5-difluoropyridin-3-yl)ethyl (4-(5-(3-cyanoazetidine-3-carboxamido)pyridin-2-yl)-1-methyl-1H-1,2,3-triazol-5-yl)carbamate]", "EC50": 354}
{"smiles": "C[C@@H](OC(=O)Nc1c(-c2ccc(NC(=O)[C@H]3CCC(=O)N3)cn2)nnn1C)c1cccnc1Cl", "note": "[Compound 152, (R)-1-(2-chloropyridin-3-yl)ethyl (1-methyl-4-(5-((R)-5-oxopyrrolidine-2-carboxamido)pyridin-2-yl)-1H-1,2,3-triazol-5-yl)carbamate]", "EC50": 3990}
{"smiles": "C[C@@H](OC(=O)Nc1c(-c2ccc(NC(=O)[C@H]3C[C@H](C#N)C3)cn2)nnn1C)c1cccnc1Cl", "note": "[Compound 127, (R)-1-(2-chloropyridin-3-yl)ethyl (4-(5-((1r,3R)-3-cyanocyclobutane-1-carboxamido)pyridin-2-yl)-1-methyl-1H-1,2,3-triazol-5-yl)carbamate]", "EC50": 416}
{"smiles": "C[C@@H](OC(=O)Nc1c(-c2ccc(NC(=O)[C@@H]3C[C@H]3c3ccncc3Cl)cn2)nnn1C)c1cc(F)cnc1F", "note": "(mixture of isomers) [Compound 238, (R)-1-(2,5-difluoropyridin-3-yl)ethyl (4-(5-((1RS,2RS)-2-(3-chloropyridin-4-yl)cyclopropane-1-carboxamido)pyridin-2-yl)-1-methyl-1H-1,2,3-triazol-5-yl)carbamate]", "EC50": 52.5}
{"smiles": "C[C@@H](OC(=O)Nc1c(-c2ccc(NC(=O)C3(C#N)CC34CCCC4)cn2)nnn1C)c1cccnc1Cl", "note": "(stereo partly drawn) [Compound 89, (R)-1-(2-chloropyridin-3-yl)ethyl (4-(5-(1-cyanospiro[2.4]heptane-1-carboxamido)pyridin-2-yl)-1-methyl-1H-1,2,3-triazol-5-yl)carbamate]", "EC50": 312}
